# Laboratory results reported in patent publication US10370379B2, “Compounds and compositions useful for treating disorders related to NTRK” (BLUEPRINT MEDICINES CORPORATION, priority 2015, dated 2019).
# Like-named read-outs stand apart in the source and are kept apart here.
# What was measured:
# [1] = target: wild type NTRK1 enzyme (Homo sapiens (Human), UniProt P04629); assay: NTRK1 Wild Type Assay at 1 mM ATP; format: biochemical
# Method: NTRK1 Wild Type Assay at 1 mM ATP
# The reaction was stopped by the addition of 70 μL of Stop buffer (100 mM HEPES pH 7.5, 0.015% Brij 35, 35 mM EDTA and 0.2% of Coating Reagent 3 (Caliper Lifesciences)). The plate was then read on a Caliper EZReader 2 (protocol settings: −1.7 psi, upstream voltage −500, downstream voltage −3000, post sample sip 35 s).
# [2] = tested on: KM12 wild type colon carcinoma cell line harboring the TPM3-NTRK1 fusion protein; assay: NTRK wild type cellular assay (KM12, CellTiter-Glo); format: cell-based; details: for IC50: KM12 wild type cells, 72 hr, CellTiter-Glo; for GI50: NTRK wt cellular, known NTRK inhibitors
# Method: (§1) NTRK Wild Type and G595R Mutant Cellular Assays Protocol
# (§2) KM12 wild type colon carcinoma cell line harboring the TPM3-NTRK1 fusion protein was obtained from the National Cancer Institute (NCI). This line has been previously shown to be dependent upon the NTRK activity derived from the NTRK fusion protein for growth and survival. […] Cells were first plated in 384-well plates at 1000 cells/well in complete media (10% FBS and 1% pen/strep) and incubated overnight at 37° C. Cells were then dosed with test articles at varying concentrations using the Bravo liquid handling system. […] Each compound was run in duplicate per plate. […] 72 hr after dosing, assay plates were developed using CellTiter-Glo (Promega) and resultant luminescence was read on the Envision plate reader. IC50 determinations were calculated using a 4-parameter curve fitting algorithm
# [3] = tested on: KM12 Cliff (G595R) cell line; assay: NTRK G595R mutant cellular assay (KM12 Cliff, CellTiter-Glo); format: cell-based; details: for IC50: Homo sapiens, KM12 Cliff (G595R) cells, 72 hr, CellTiter-Glo
# Method: as §1, §2
# [4] = wild type NTRK1, 1 mM ATP, read-out: NTRK1 IC50
# Chain of wild type NTRK1 enzyme (P04629 33-796): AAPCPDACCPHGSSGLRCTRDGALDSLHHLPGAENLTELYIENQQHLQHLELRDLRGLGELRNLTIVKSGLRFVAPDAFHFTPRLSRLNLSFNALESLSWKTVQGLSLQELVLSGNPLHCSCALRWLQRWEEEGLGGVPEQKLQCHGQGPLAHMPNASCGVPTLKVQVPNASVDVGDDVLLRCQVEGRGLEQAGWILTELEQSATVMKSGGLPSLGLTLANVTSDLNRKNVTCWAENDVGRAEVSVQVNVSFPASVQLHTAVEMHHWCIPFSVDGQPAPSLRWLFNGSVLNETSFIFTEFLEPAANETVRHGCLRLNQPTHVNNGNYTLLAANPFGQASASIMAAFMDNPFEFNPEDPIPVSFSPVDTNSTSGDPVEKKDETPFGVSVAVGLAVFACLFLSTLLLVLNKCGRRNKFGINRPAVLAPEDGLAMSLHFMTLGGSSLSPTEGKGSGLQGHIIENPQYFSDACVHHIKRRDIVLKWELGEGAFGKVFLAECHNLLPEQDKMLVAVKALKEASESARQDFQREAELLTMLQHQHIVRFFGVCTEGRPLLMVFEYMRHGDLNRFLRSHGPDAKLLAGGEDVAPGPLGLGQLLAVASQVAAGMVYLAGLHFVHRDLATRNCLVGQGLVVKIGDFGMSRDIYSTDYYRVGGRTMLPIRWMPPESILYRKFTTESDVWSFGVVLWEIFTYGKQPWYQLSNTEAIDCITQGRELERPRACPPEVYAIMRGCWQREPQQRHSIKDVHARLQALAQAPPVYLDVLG
"IC50 [1, 4] [nM]",IC50 ([2]; Homo sapiens) [nM],"GI50 ([2]; Homo sapiens, KM12) [nM]",SMILES,IC50 [3] [nM],"IC50 ([1]; NTRK wt, known NTRK inhibitors, read-out: NTRK wt Enzyme Assay IC50) [nM]",GI50 [2] [nM],"GI50 ([3]; NTRK G595R cellular, known NTRK inhibitors) [nM]"
< 10,< 10,–,N#Cc1cnn2ccc(N3C[C@@H](F)C[C@@H]3c3cc(F)cc(Cl)c3)nc12 [Compound 9],< 10,–,–,–
< 10,< 10,–,"N#Cc1cnn2cc(F)c(N3C[C@@H](F)C[C@@H]3c3cncc(F)c3)nc12 [Compound 4, 6-fluoro-5-((2R,4S)-4-fluoro-2-(5-fluoropyridin-3-yl)pyrrolidin-1-yl)pyrazolo[1,5-a]pyrimidine-3-carbonitrile]",< 10,–,–,–
< 10,< 10,–,"COc1ncc(F)cc1[C@H]1C[C@H](F)CN1c1ccn2ncc(C#N)c2n1 [Compound 7, 5-((2R,4S)-4-fluoro-2-(5-fluoro-2-methoxypyridin-3-yl)pyrrolidin-1-yl)pyrazolo[1,5-a]pyrimidine-3-carbonitrile]",< 10,–,–,–
–,–,87,"C[C@@H](Oc1cc(-c2cnn(C3CCNCC3)c2)cnc1N)c1c(Cl)ccc(F)c1Cl [Crizotinib, reference compound]",–,–,–,–
10 to 100,10 to 100,–,"CNC(=O)c1cc(F)cc([C@H]2C[C@H](F)CN2c2ccn3ncc(C#N)c3n2)c1 [Compound 20, 3-((2R,4S)-1-(3-cyanopyrazolo[1,5-a]pyrimidin-5-yl)-4-fluoropyrrolidin-2-yl)-5-fluoro-N-methylbenzamide]",10 to 100,–,–,–
10 to 100,10 to 100,–,"N#Cc1cnn2ccc(N3C[C@@H](F)C[C@@H]3c3cc(F)ccc3C(N)=O)nc12 [Compound 22, 2-((2R,4S)-1-(3-cyanopyrazolo[1,5-a]pyrimidin-5-yl)-4-fluoropyrrolidin-2-yl)-4-fluorobenzamide]",100 to 1000,–,–,–
10 to 100,10 to 100,–,"Cn1cc(F)cc([C@H]2C[C@H](F)CN2c2ccn3ncc(C#N)c3n2)c1=O [Compound 8, 5-((2R,4S)-4-fluoro-2-(5-fluoro-1-methyl-2-oxo-1,2-dihydropyridin-3-yl)pyrrolidin-1-yl)pyrazolo[1,5-a]pyrimidine-3-carbonitrile]",100 to 1000,–,–,–
10 to 100,10 to 100,–,"CC(C)(O)c1cc(F)cc([C@H]2C[C@H](F)CN2c2ccn3ncc(C#N)c3n2)c1 [Compound 14, 5-((2R,4S)-4-fluoro-2-(3-fluoro-5-(2-hydroxypropan-2-yl)phenyl)pyrrolidin-1-yl)pyrazolo[1,5-a]pyrimidine-3-carbonitrile]",100 to 1000,–,–,–
< 10,< 10,–,N#Cc1cnn2ccc(N3C[C@@H](F)C[C@@H]3c3cc(F)ccc3F)nc12 [Compound 2],< 10,–,–,–
< 10,< 10,–,N#Cc1cnn2ccc(N3C[C@@H](F)C[C@@H]3c3cc(F)ccc3OC(F)(F)F)nc12 [Compound 17],< 10,–,–,–
< 10,< 10,–,N#Cc1cnn2ccc(N3C[C@@H](F)C[C@@H]3c3cc(F)cnc3Cl)nc12 [Compound 10],< 10,–,–,–
< 10,< 10,–,N#Cc1cc(F)cc([C@H]2C[C@H](F)CN2c2nc3c(C#N)cnn3cc2F)c1 [Compound 12],< 10,–,–,–
10 to 100,10 to 100,–,"N#Cc1cnn2ccc(N3CC(F)(F)C[C@@H]3c3cncc(F)c3)nc12 [Compound 3, (R)-5-(4,4-difluoro-2-(5-fluoropyridin-3-yl)pyrrolidin-1-yl)pyrazolo[1,5-a]pyrimidine-3-carbonitrile]",100 to 1000,–,–,–
< 10,10 to 100,–,N#Cc1cnn2ccc(N3C[C@@H](F)C[C@@H]3c3cc(F)cc(C(=O)NCC4CC4)c3)nc12 [Compound 19],10 to 100,–,–,–
–,–,–,"CC(C)NC(=O)[C@H]1CC[C@@H](n2c(NC(=O)c3ccc(F)cc3)nc3ccc(CN4CCC(C(C)(C)O)CC4)cc32)CC1 [TSR-011, reference compound]",–,2.3,32,12000
< 10,< 10,–,COc1c(F)cc(F)cc1[C@H]1C[C@H](F)CN1c1ccn2ncc(C#N)c2n1 [Compound 13],< 10,–,–,–
10 to 100,10 to 100,–,CN(C)C(=O)c1cc(F)cc([C@H]2C[C@H](F)CN2c2ccn3ncc(C#N)c3n2)c1 [Compound 21],100 to 1000,–,–,–
< 10,< 10,–,"N#Cc1cnn2ccc(N3C[C@@H](F)C[C@@H]3c3cncc(F)c3)nc12 [Compound 1, 5-((2R,4S)-4-fluoro-2-(5-fluoropyridin-3-yl)pyrrolidin-1-yl)pyrazolo[1,5-a]pyrimidine-3-carbonitrile]",10 to 100,–,–,–
< 10,< 10,–,"N#Cc1cc(F)cc([C@H]2C[C@H](F)CN2c2ccn3ncc(C#N)c3n2)c1 [Compound 6, 5-((2R,4S)-2-(3-cyano-5-fluorophenyl)-4-fluoropyrrolidin-1-yl)pyrazolo[1,5-a]pyrimidine-3-carbonitrile]",< 10,–,–,–
10 to 100,10 to 100,–,"N#Cc1cnn2ccc(N3C[C@@H](C#N)C[C@@H]3c3cc(F)ccc3F)nc12 [Compound 5, 5-((2R,4S)-4-cyano-2-(2,5-difluorophenyl)pyrrolidin-1-yl)pyrazolo[1,5-a]pyrimidine-3-carbonitrile]",100 to 1000,–,–,–
< 10,< 10,–,N#Cc1cnn2ccc(N3C[C@@H](F)C[C@@H]3c3cc(F)cc(C(N)=O)c3)nc12 [Compound 11],10 to 100,–,–,–
< 10,10 to 100,–,N#Cc1cnn2ccc(N3C[C@@H](F)C[C@@H]3c3cc(F)cc(S(N)(=O)=O)c3)nc12 [Compound 16],10 to 100,–,–,–
< 10,10 to 100,–,N#Cc1cnn2cc(F)c(N3C[C@@H](F)C[C@@H]3c3cc(F)cc(C(N)=O)c3)nc12 [Compound 15],10 to 100,–,–,–
10 to 100,10 to 100,–,N#Cc1cnn2ccc(N3C[C@@H](F)C[C@@H]3c3cc(F)cc(C(=O)NCCO)c3)nc12 [Compound 18],10 to 100,–,–,–
